What was measured:
activated neutrophils = assay: neutrophil activation: superoxide production (WST-1); type: cell-based, rat; settings: 100 μg/ml, positive control
Experimental: The in vitro anti-inflammatory screening assay used in this investigation involved determining the effect of a test material on activated neutrophils. The production of superoxide was measured. Neutrophils were prepared from fresh rat blood and diluted with phosphate-buffered saline (PBS) and adjusted to a concentration of 10^7 cells per ml. The purity of the preparation was 95% or higher. The test sample was pre-incubated with a cell suspension at 37° C. for 15 minutes in wells of a 96 well culture plate. Then catalase and WST-1 dye reagent were added to each incubate (including controls). Each was then activated with phorbol myristate acetate (100 ng/ml). After incubation for 1 hr at 37° C. the reaction was stopped and the level of superoxide produced from oxidation of the dye WST by the superoxide in each well of the plate determined calorimetrically at 450 nm. As a positive control, triplicate wells with aspirin (100 μg/ml) were assayed. Each sample was assessed at three different concentrations.

rat monocytes = assay: macrophage assay: conversion of monocytes to macrophages (nitric oxide, Griess); type: cell-based
Experimental: A diluent composed of RPMI culture media containing 10% foetal calf serum (FCS) was prepared. A density gradient barrier was prepared by mixing a working solution [Optiprep: diluent, 2:1, v/v] with further diluent in a ratio of 2.3 to 5.0. The density of 1.076 g/ml is required for isolating rat monocytes. Freshly isolated rat blood was cooled to 4° C. 5 ml of the density gradient was layered over 5 ml of the blood and 5 ml of diluent was then layered gently on top. After centrifuging at 700 g for 30 min at 4° C., the monocytes were collected from the top of the 1.076 g/ml layer and diluted with 2 volumes of diluent and the pellet was gently resuspended in Hanks Balanced Salt Solution (HBSS). The cell concentration and the relative purity were determined. 500 μl Aliquots of cell suspension were used. […] 10 μl of LPS (5 mg/ml) was then added to all tubes, except the control, to give a final concentration of LPS of approximately 20 μg/ml. The cells were incubated overnight at 37° C. and then centrifuged at 12,000 g (4° C.) for 5 min. The supernatants were collected and aliquots of these were then assayed in duplicate for the concentration of nitric oxide (NO) by the Griess reagent procedure using a kit (Sigma, St Louis, USA).

SMILES	Absorbance units (superoxide production) (activated neutrophils)	inhibition at 100 µg/mL (activated neutrophils; Rattus norvegicus, Neutrophil)	% Inhibition of conversion of monocytes to macrophages (NO production) (rat monocytes; 2.5 μM)	Absorbance units (nitric oxide production) (rat monocytes; 2.5 μM)	% Inhibition of conversion of monocytes to macrophages (NO production) (rat monocytes; 5 μM)	Absorbance units (nitric oxide production) (rat monocytes; 5 μM)
CC(=O)Oc1ccccc1C(=O)O [Aspirin, aspirin]	0.3095 Absorbance units	46.9%	–	–	–	–
CNC(=N)NCCC[C@H](N)C(=O)O [L-NMMA]	–	–	44.94%	1.568 Absorbance units	75.07%	0.710 Absorbance units

From patent US20080193549A1, “Hoki Fish Liver Oil, Fractions Thereof And Therapeutic Uses” (Otago Innovation Limited, priority 2004, published 2008)
